Assay results reported in patent US7268209B2, “Peptides, derivates thereof, process for producing the same, novel strain producing the same, and antiviral agent comprising the same as active ingredient” (Toyo Suisan Kaisha, Ltd., priority 2001, dated 2007).
Where a SMILES comes first, the peptide text is derived from it. Bridges are numbered along the chain shown (N, C = ends). [ ]: non-standard residue; d: D form. The star is where a group is joined. ξ: configuration not given here. Decanoyl(3ξ-OH) = CCCCCCCC(O)CC(=O)*; X1 = CCCCCC/C=C/CC(O)CC(=O)*; Dab = NCC[CH](N)C(=O)O

Assays:
[1] = tested on: white spot syndrome virus (WSSV); experiment: Antiviral effect against shrimp virus: injection of peptide-treated WSSV into shrimp; type: in vivo, Penaeus monodon (black tiger shrimp); conditions: WSSV mixed with equal volume of 100 μg/mL peptide solution, 25° C. 1 hour, 0.1 mL intramuscular; observed 2 weeks; 10 shrimps per group
Protocol: Penaeus monodon (black tiger shrimp) weighing about 20 g were divided at random into groups each consisting of 10 shrimps and raised separately. A viral culture fluid prepared by diluting the white spot syndrome virus (WSSV LD50 value; 10^−3.6) 2000-fold with Hank's solution was mixed with an equal volume of a diluted solution (100 μg/mL) of the present peptides MA026 and BTI-MA026. After the mixture was incubated at 25° C. for 1 hour, the solution was intramuscularly injected at a dose of 0.1 mL into each shrimp, for viral inoculation. Whether the shrimps were actually inoculated with the virus or not was determined by observing them for 2 weeks after viral infection, and pathologically examining the ones that dies. The lesion tissues were examined to detect the viral gene by the PCR method. In the control group, Hank's solution only was used.

hepatitis C virus (HCV) = type: cell-based; conditions: summary of Table 14
Protocol: Using the present peptides MA026, BTI-MA026 and R2MA026 as objects, the antiviral effect against hepatitis C virus (HCV) was examined. The experiments were conducted according to the method of Mizutani et al. (Biochem. Biophys. Res. Commun. 227, 822-826, 1996) under supervision of Dr. Kunitada Shimotohno at Institute for Viral Research, Kyoto University. • (1) 1×10^6 gene titer per 0.1 mL of HCV was infected with 1×10^6 MT-2C cells per 1 mL, and cultured at 32° C. for 4 days. • (2) The infected cells of (1) were divided (10^5 cells per well) into a 96-well plate and incubated at 32° C. for 1 day. • (3) Each of the present peptides was added to each well so that the concentration thereof became 1 μM and 5 μM, and incubated at 32° C. for further 2 days. • (4) RNA was extracted from the test cells, and after synthesized cDNA with a reverse transcriptase, PCR of first and second round were performed to detect the HCV gene. • (5) The inhibition effect against HCV was evaluated by comparing fluorescence intensities of the PCR products originated from the HCV infected cells to which the test sample was added, assuming the fluorescence intensity of the PCR product originated from the infected cells to which no test substance was added, to be 100%.

IHNV HV7601 strain = experiment: Antiviral activity by plaque reduction, IHNV in CHSE-214 cells; type: cell-based, infectious hematopoietic necrosis virus (IHNV) in salmonid; conditions: decrease in number of plaques, sample and virus pre-incubated at 10° C. for 2 hours
Protocol: (§1) Evaluation of the antiviral activity was conducted by the same method as described by Burke et al. (Appln. Env. Microbiol., 29, 872-876, 1980) except for the following partial modification. • (1) A sample to be measured for its antiviral activity is dissolved in dimethyl sulfoxide (DMSO) and then diluted with Hank's solution. • (2) 0.2 mL each of the diluted solution in (1) and a viral solution (IHNV HV7601 strain; 100 to 200 PFU/sample) diluted with Hank's solution are mixed and incubated at 10° C. for 2 hours. • (3) After the incubation in (2), the sample is inoculated for 30 minutes in CHSE-214 cells previously cultured for 24 hours in a 24-well cell culture plate. • (4) The sample is removed from each well, and an MEM medium containing. 0.8% methyl cellulose is overlaid on the cells and cultured for 7 days. • (5) The cells on the culture plate are fixed in 3.7% aqueous formalin, and after staining with 1% Crystal Violet, the number of plaques is counted. • (6) The antiviral activity is expressed in terms of the decrease in the number of plaques, relative to that decrease on wells to which the sample was not added. (Composition of the Medium) • a) 5.00 g polypeptone, 2.50 g meat extract, 2.50 g yeast extract, 0.20 g K2HPO4, 0.05 g MgSO4, 1.00 g glucose, 5.00 g NaCl, 1000 mL distilled water, pH 7.5, which were autoclaved at 121° C. for 15 minutes. • b) 15.00 g agar for microorganisms is added to a).
In the following examples, the evaluation of the antiviral activity was conducted in the method described above.
(§2) The antiviral activities of the present peptide MA026 against infectious hematopoietic necrosis virus (IHNV) in salmonid, rhabdovirus (EVA) in American eels and rhabdovirus (EVEX) in European eels were measured according to the method described in Example 1.

[2] = tested on: rhabdovirus (EVA) in American eels; experiment: Antiviral activity by plaque reduction, EVA; type: cell-based; conditions: method of Example 1, decrease in number of plaques
Protocol: as §1, with “(Composition of the Medium) • a) 5.00 g polypeptone, 2.50 g meat extract, 2.50 g yeast extract, 0.20 g K2HPO4, 0.05 g MgSO4, 1.00 g glucose, 5.00 g NaCl, 1000 mL distilled water, pH 7.5, which were autoclaved at 121° C. for 15 minutes. • b) 15.00 g agar for microorganisms is added to a).” left out
as §2

[3] = tested on: rhabdovirus (EVEX) in European eels; experiment: Antiviral activity by plaque reduction, EVEX; type: cell-based; conditions: method of Example 1, decrease in number of plaques
Protocol: as §1, with “(Composition of the Medium) • a) 5.00 g polypeptone, 2.50 g meat extract, 2.50 g yeast extract, 0.20 g K2HPO4, 0.05 g MgSO4, 1.00 g glucose, 5.00 g NaCl, 1000 mL distilled water, pH 7.5, which were autoclaved at 121° C. for 15 minutes. • b) 15.00 g agar for microorganisms is added to a).” left out
as §2

CCCCCCCC(O)CC(=O)NC(CC(C)C)C(=O)NC(CCC(=O)O)C(=O)NC(CCN)C(=O)NC(C(=O)NC(CC(C)C)C(=O)NC(CCN)C(=O)NC1COC(=O)C(C(C)CC)NC(=O)C(CCN)NC(=O)C(CC(C)C)NC(=O)C(CCN)NC(=O)C(CC(C)C)NC(=O)C(CC(C)C)NC(=O)C(C(C)C)NC1=O)C(C)C (stereo not drawn) [BTI-MA026] ({Decanoyl(3ξ-OH)}-LE[Dab]VL[Dab]SVLL[Dab]L[Dab]I; ester 7-C; configuration not given here)
dead shrimp after inoculation with WSSV [1]: no dead shrimp | proliferation of hepatitis C virus (hepatitis C virus (HCV)): inhibited | antiviral activity against IHNV (IHNV HV7601 strain): confirmed

CCCCCCCC(O)CC(=O)NC(CC(C)C)C(=O)NC(CCC(=O)O)C(=O)NC(CCN)C(=O)NC(C(=O)NC(CC(C)C)C(=O)NC(CCN)C(=O)NC(CO)C(=O)NC(C(=O)NC(CC(C)C)C(=O)NC(CC(C)C)C(=O)NC(CCN)C(=O)NC(CC(C)C)C(=O)NC(CCN)C(=O)NC(C(=O)O)C(C)CC)C(C)C)C(C)C (stereo not drawn) [BTI-base MA026] ({Decanoyl(3ξ-OH)}-LE[Dab]VL[Dab]SVLL[Dab]L[Dab]I-OH; configuration not given here)
antiviral activity against IHNV (IHNV HV7601 strain): confirmed

CCCCCCCC(O)CC(=O)NC(CC(C)C)C(=O)NC(CCC(=O)O)C(=O)NC(CCC(N)=O)C(=O)NC(C(=O)NC(CC(C)C)C(=O)NC(CCC(N)=O)C(=O)NC1COC(=O)C(C(C)CC)NC(=O)C(CCC(N)=O)NC(=O)C(CC(C)C)NC(=O)C(CCC(N)=O)NC(=O)C(CC(C)C)NC(=O)C(CC(C)C)NC(=O)C(C(C)C)NC1=O)C(C)C (stereo not drawn) [MA026] ({Decanoyl(3ξ-OH)}-LEQVLQSVLLQLQI; ester 7-C; configuration not given here)
dead shrimp after inoculation with WSSV [1]: no dead shrimp | antiviral activity against EVA [2]: high antiviral activity | antiviral activity against EVEX [3]: high antiviral activity | proliferation of hepatitis C virus (hepatitis C virus (HCV)): inhibited | antiviral activity against IHNV (IHNV HV7601 strain): high antiviral activity

CCCCCCCC(O)CC(=O)NC(CC(C)C)C(=O)NC(CCC(=O)O)C(=O)NC(CCC(N)=O)C(=O)NC(C(=O)NC(CC(C)C)C(=O)NC(CCC(N)=O)C(=O)NC1COC(=O)C(CC(C)C)NC(=O)C(CCC(N)=O)NC(=O)C(CC(C)C)NC(=O)C(CCC(N)=O)NC(=O)C(CC(C)C)NC(=O)C(C(C)C)NC(=O)C(C(C)C)NC1=O)C(C)C (stereo not drawn) [R1MA026] ({Decanoyl(3ξ-OH)}-LEQVLQSVVLQLQL; ester 7-C; configuration not given here)
antiviral activity against IHNV (IHNV HV7601 strain): confirmed

CCCCCC/C=C/CC(O)CC(=O)NC(CC(C)C)C(=O)NC(CCC(=O)O)C(=O)NC(CCC(N)=O)C(=O)NC(C(=O)NC(CC(C)C)C(=O)NC(CCC(N)=O)C(=O)NC1COC(=O)C(C(C)CC)NC(=O)C(CCC(N)=O)NC(=O)C(CC(C)C)NC(=O)C(CCC(N)=O)NC(=O)C(CC(C)C)NC(=O)C(CC(C)C)NC(=O)C(C(C)C)NC1=O)C(C)C (stereo not drawn) [R2MA026] (X1-LEQVLQSVLLQLQI; ester 7-C; configuration not given here)
proliferation of hepatitis C virus (hepatitis C virus (HCV)): inhibited | antiviral activity against IHNV (IHNV HV7601 strain): confirmed
